Measured values from patent US20080194506A1, “Oligodeoxyribonuleotides of 4000-10000 Dalton for Treating” (Gentium SPA, priority 2005, published 2008).

How the values were obtained:
[1] = system: transdifferentiating ELC (TuDC-ELC); assay: Matrigel tube formation assay of TuDC-ELC; assay type: cell-based, human
Text: We have recently developed a model for an alternative pathway of tumor angiogenesis. […] These endothelial-like cells (ELC) can transdifferentiate from tumor-associated dendritic cells under specific culture conditions (11). Briefly, monocytes are elutriated from leukapheresis products of healthy human blood donors and cultured in the presence of granulocyte-macrophage-colony stimulating factor (GM-CSF) and interleukin 4 (IL-4) to stimulate the differentiation of dendritic cells (DC). In addition, cells are treated with a cocktail specifically released by tumor cells (M-CSF, IL.6 and lactate, Gottfried et al., manuscript submitted) to promote the outgrowth of tumor-associated dendritic cells (TuDC).
These TuDC-ELC acquire the phenotype of endothelial cells (FactorVIII related Ag, vWF) while they lose monocytic (CD14) and dendritic cell markers (CD1a). […] In addition, they are able to form tube-like structures in Matrigel™, an in vitro assay of angiogenesis.
The Matrigel™ assay is one of the most popular and widely used in vitro angiogenesis assays (22). […]
By the help of a complimentary software from the NIH (Image J, http://rsb.info.nih.gov/ij/), we are able to quantify these effects, the total length of tubes and the area of the photograph are assessed, the microvascular density (MVD) is then given in total length/area [pix-1].

[2] = system: human umbilical vene (HUVEC) endothelial cells; assay: Matrigel tube formation assay of HUVEC; assay type: cell-based; details: single addition, 10 μg/mL, 7 days, FIG. 1A
Description: (§1) The Matrigel™ assay is one of the most popular and widely used in vitro angiogenesis assays (22). Matrigel™ is a semisolid synthetic mixture of extracellular matrix proteins which simulate the matrix that physiologically exist beneath the endothelial cell wall of a blood vessel. When the cells of question are seeded onto this matrix in microscopic chamber slides, they are activated to form tubular structures in 3-7 days, but only in the case that they have an endothelial phenotype. Therefore, this assay is suitable to show the potential capacity of cells to give rise to a tumor vasculature.
(§2) TuDC-ELC and mature, differentiated endothelial cells, [human umbilical vene (HUVEC) or microvascular endothelial cells (HMEC) as “stable” controls] were incubated in the presence or absence of oligotide or Defibrotide (10 μg/mL each) for 7 days.

[3] = system: microvascular endothelial cells (HMEC); assay: Matrigel tube formation assay of HMEC; assay type: cell-based, human; details: single addition, 10 μg/mL, 7 days, FIG. 1A
Description: as §1, §2

[4] = system: rat aorta endothelial cells; assay: Aortic ring assay: sprouting of rat aorta endothelial cells in Matrigel; assay type: cell-based; details: applied on a daily basis, FIG. 2
[5] = system: human microvascular endothelial cells; assay: In vitro angiogenesis assay: microvascular endothelial cells vascularizing through a layer of dermal fibroblasts; assay type: cell-based
Description: The aortic ring assay investigates macrovascular endothelial cells. But often, the tumor vasculature consists of microvascular endothelial cells. Therefore, a third in vitro angiogenesis assay was performed on the basis of microvascular endothelial cells vascularizing through a layer of dermal fibroblasts after 9-11 days of culture. These vessel-like structures can subsequently be visualized by staining for CD31 and vWF.

[6] = system: human gastric carcinoma; assay: Dorsal skin chamber assay, human gastric carcinoma mouse model (Xenograft system); assay type: in vivo; details: treated vs control tumors; first data
Text: We are currently performing a dorsal skin chamber assay (14) that investigates the effect of defibrotide in a highly vascularized human gastric carcinoma mouse model (Xenograft system). […] This set of experiments will be reproduced in due time.

[7] = system: activated p70S6 kinase (p-p70S6); assay: Western Blot analyses of activated p70S6 kinase; assay type: cell-based; details: preliminary evidence
[8] = system: serum VEGF; assay: Serum VEGF levels in patients after allogeneic stem cell transplantation; assay type: in vivo, human; details: cohort of 17 treated patients after allogeneic SCT

In the case of defibrotide, the “tube formation of transdifferentiating ELC (TuDC-ELC) in Matrigel” value ([1]; 10 μg/mL, 7 days, clinical and subclinical concentrations) is reported as “can inhibit tube formation”, the “microvascular density (MVD) of TuDC-ELC, total length/area” value ([1]; Image J quantification, p=0.02 TTEST, FIG. 1B) is reported as “significantly (p=0.02, TTEST) downregulates MVD” and the “tube formation potential of HUVEC” value [2] is reported as “not affected”. For the same substance, the “tube formation potential of HMEC” value [3] was “not affected”, the “prevention of sprouting of rat aorta endothelial cells in Matrigel” value [4] was ~100% and the “angiogenesis of human microvascular endothelial cells” value ([5]; daily application, 9-11 days of culture, FIGS. 3A and B) was “can also block angiogenesis”. For the same substance, the “most effective concentration for blocking angiogenesis” value ([5]; human microvascular endothelial cells, FIGS. 3A and B) was “around 10 μg/mL”, the “angiogenesis of human microvascular endothelial cells” value ([5]; single application) was “could not significantly block angiogenesis” and the “microvascular density (MVD) of tumors” value [6] was “lower than that of control tumors”. For the same substance, the “effect on activated p70S6 kinase (p-p70S6)” value [7] was “downregulating effect” and the “serum VEGF levels” value [8] was “striking decline”.
